Measurements taken from patent US10683265B1, “Cannabidiol-3-sulfonic acid, preparation method and application thereof, and cannabidiol derivative” (Yantai Hemp Biotechnology Co., Ltd., priority 2019, dated 2020).
Converted amounts (≈) assume the structure as drawn. Like-named read-outs stand apart in the source and are kept apart here.

Columns and labels:
[1] = Solubility determining in water by HPLC (saturated solutions, external standard method); type: physicochemical; details: for solubility: thermodynamic from solid
Text: 1. Solubility Determining:
1) Instruments and reagents: Thermo Fisher UltiMate 3000 high performance liquid chromatography (Thermo, USA); chromatographic column (Phenomenex Gemini C18, 5μ, 250×4.6 mm); electronic balance (METTLER TOLEDO instruments (Shanghai) Co., Ltd.); cannabidiol (commercially available), cannabidiol-3-sulfonic acid (prepared in Embodiment 1) and sodium cannabidiol-3-sulfonate (prepared in Embodiment 3). chromatography acetonitrile (Merck, Germany); water was Milli-Q ultrapure water, the remaining reagents were analytically pure.
Three clean 10 mL penicillin bottles were taken, 6 mL of ultrapure water was added accurately in each of the penicillin bottles, and the weight was weighed accurately. Cannabidiol, cannabidiol-3-sulfonic acid and sodium cannabidiol-3-sulfonate were separately added at room temperature until ultrasonic treatment was performed for 10 min and the samples still could not be completely dissolved, to obtain saturated solutions of three compounds respectively; the solutions stood overnight at room temperature, and supernatants were taken as solutions of samples for test (supernatants of the cannabidiol-3-sulfonic acid and the sodium cannabidiol-3-sulfonate were diluted by appropriate times depending on the detection situation).
An appropriate amount of cannabidiol, cannabidiol-3-sulfonic acid and sodium cannabidiol-3-sulfonate were taken and were prepared into solutions with a concentration of 0.2 mg·mL^−1 as reference substance solutions by using 10% acetonitrile-0.5% acetic acid solution.
The samples were determined by high performance liquid chromatography (Appendix V D of Part II of Chinese Pharmacopoeia).
Chromatographic conditions and system suitability Octadecylsilane bonded silica was used as a filler; 10% acetonitrile—0.5% acetic acid→75% acetonitrile—0.5% acetic acid were used as mobile phases; the wavelength was detected to be 225 nm; and the theoretical plate numbers were not less than 4,000 on a basis of cannabidiol, cannabidiol-3-sulfonic acid and sodium cannabidiol-3-sulfonate.
A measurement method includes: precisely measuring and injecting 20 μL of solution of sample for test into a liquid chromatograph, and recording a chromatogram; and taking a reference substance solution and measuring the reference substance solution according to the same method. The concentrations of the three compounds in the solution of sample for test were calculated by an external standard method according to a peak area.

[2] = high-purity CBD, cited from earlier work
[3] = in water, room temperature, saturated solution stood overnight, supernatant measured by HPLC, read-out: Solubility

| Compound | solubility [1, 3] | Solubility in organic solvents (in words) ([2]; ethanol, methanol, ether, benzene, chloroform, petroleum ether and other organic solvents) | Solubility in water or 10% sodium hydroxide solution (in words) ([2]; water or 10% sodium hydroxide solution) | Solubility in water (in words) ([1]; in water at room temperature) | solubility ([1]; water) |
| --- | --- | --- | --- | --- | --- |
| C=C(C)[C@@H]1CCC(C)=C[C@H]1c1c(O)cc(CCCCC)c(S(=O)(=O)[O-])c1O.[Na+] [Sodium cannabidiol-3-sulfonate, sodium cannabidiol-3-sulfonate] | 486 mg/mL |  |  |  |  |
| C=C(C)[C@@H]1CCC(C)=C[C@H]1c1c(O)cc(CCCCC)cc1O [Cannabidiol, 2-[(1R,6R)-3-methyl-6-(1-methylvinyl)-2-cyclohexen-1-yl]-5-pentyl-1,3-benzenediol] | 0.41 mg/mL (≈ 1.3 mM) | soluble | almost insoluble | slightly soluble |  |
| C=C(C)[C@@H]1CCC(C)=C[C@H]1c1c(O)cc(CCCCC)c(S(=O)(=O)O)c1O [Cannabidiol-3-sulfonic acid, (1′R,2′R)-2,6-dihydroxy-5′-methyl-4-pentyl-2″-(propyl-1-en-2-yl)-1″,2′,3′,4′-tetrahydro-[1,1′-biphenyl]-3-sulfonic acid] |  |  |  |  | 56.2 mg/mL (≈ 142 mM) |
